“And” between values parts separate entries of the source, which are not always exact repeats. Identical values can stand only once. Like-named read-outs stand apart in the source and are kept apart here.
Assays:
B. subtilis = test: Antibacterial test on plates (zones of inhibition); type: cell-based; conditions: 20 g/L and 10 g/L on plates, Figure 11
S. aureus [1] = test: Antibacterial test on plates (zones of inhibition); type: cell-based; conditions: for antibacterial activity on S. aureus (zones of inhibition): 20 g/L and 10 g/L on plates, Figure 11; for Concentration (bacteriostatic effect), S. aureus: Table 7, Figure 12
E. coli = test: Antibacterial test on plates (zones of inhibition); type: cell-based; conditions: 20 g/L and 10 g/L on plates, Figure 11a
[2] = Potentiometric titration, stability constant of complex with Cu^2+; type: physicochemical; conditions: 25 °C, water with 20% DMSO, KNO3
Description: (§1) The stability constant of the complex was tested using a Metrohm 877 Titrino plus automatic potentiometric titrator (Metrohm, Herisau, Switzerland). The titration temperature was maintained at 25 ± 0.5 °C with pH range of 2–11. The titration solution was water solution with 20% DMSO, and the ionic strength I = […] KNO3 (aq). The initial concentration was [L] = 0.005–0.0001 mol·L^−1, [HNO3] = 0.002 mol·L^−1, [KNO3] = 0.10 mol·L^−1, and [M] = 0.0001 mol·L^−1. The total volume was 25 mL, the titration volume was 0.004 mL·D^−1, and the response time was at least 1 min. The titration was triplicate and the titration data were fitted using Hyperquad 2013 software, where the ion product of H2O was pKw = 13.85 [18]. The distribution curve of species with pH was plotted using HySS 2009 software (Version 2009, Hyperquad Co. Ltd., London, UK). Three metal ions, Cu^2+, Zn^2+, and Mn^2+, were chosen as model ions in this work. The stability constants of the thiosemicarbazone compounds forming complexes with the above three metal ions and the species distribution under different pH conditions were investigated in detail.

A549 cells = test: MTT cytotoxicity assay; type: cell-based; conditions: for Concentration of Compounds When 80% of Cells Survive: 48 h co-culture
Description: The cytotoxic effect of compounds was determined by using in vitro colorimetric MTT assay. The A549 cells were seeded into 96-well microtiter tissue culture plates with a final volume of 100 μL. After attachment for 24 h, the cells were treated with different concentrations (0.1, 1, 10, 50, and 100 μM) of thiosemicarbazone compounds in the culture medium. Eight replicate wells per concentration were used and all experiments were repeated in triplicate. The solvent control (DMSO) was also assayed in parallel. The cells were incubated for 24 h and 48 h with compounds. Then, MTT dye was added 4 h before the completion of the incubation periods. The resulting formazan crystals were separated from the medium and then dissolved in 100 μL DMSO. The absorbance at 490 nm was used to quantify the plates using ELx808 Absorbance Microplate Reader (Bio-Tek, Winooski, USA).

[3] = Potentiometric titration, stability constant of complex with Mn^2+; type: physicochemical; conditions: 25 °C, water with 20% DMSO, KNO3
Description: as §1

tyrosinase = test: Tyrosinase activity analysis (L-DOPA oxidation, spectrophotometry at 475 nm); type: biochemical
Description: Tyrosinase activity was determined by spectrophotometry, as 3,4-dihydroxyphenylalanine (L-DOPA, Sigma) oxidation activity, with a modification of a reported method. In brief, the tyrosinase solution (50 µL) was gently added to 450 µL of phosphate buffer at a concentration of 0.05 M containing 50 µM samples. The pH of the solution was maintained at 6.8. Then, the mixture was incubated at 30 °C for 10 min and 500 µL of 5 mM L-DOPA solution was added. […] This intensity of the peaks was recorded based on time. The tyrosinase activity was analyzed from the initial rate. The buffer containing 1% DMSO was used as a control sample. The inhibition rate of the test solution against tyrosinase was calculated using the corresponding negative control as a reference, and an approximation of the half-inhibitory concentration (IC50) was estimated based on the concentration-enzyme inhibition rate curve.

[4] = Potentiometric titration, stability constant of complex with Zn^2+; type: physicochemical; conditions: 25 °C, water with 20% DMSO, KNO3
Description: as §1

S. aureus [5] = test: Antibacterial test GB/T20944.3-2008, colony count, inhibition rate; type: cell-based; conditions: Staphylococcus aureus, DY6 at 1.0 µM vs control sample, read-out: inhibition effect (colony-forming bacterial units)
Description: Antibacterial performance against bacteria (E. coli, S. aureus, and B. subtilis) was determined according to GB/T20944.3-2008. The inoculation suspension of bacteria was prepared and the inoculation loop was used to conduct the bacterial inoculation on the agar board for 18–24 h at 37 ± 1 °C. The sample was dipped into the conical flask filled with experimental bacteria solution with a certain concentration. After that, the oscillation culture is conducted to the samples for specified time, and 1 mL of solution was taken, diluted and distributed onto an agar plate. All plates were incubated at 37 °C for 24 h and the colonies formed were counted. […] Qt is the bacteria-colony number of viable bacteria in the plate after antibacterial treatment or grafted PAN fibers.
Figure 13 Antibacterial effect against S. aureus: (a) control sample; (b) after treatment with DY6 ay the concentration of 1.0 µM; (c) original PAN fibers; and (d) grafted DY6–PAN fibers.

[6] = L-DOPA substrate, pH 6.8, 30 °C, approximation from concentration-inhibition curve, read-out: IC50 (semi-inhibitory concentration of tyrosinase)

Cc1ccc(O)c(/C=N/NC(N)=S)c1 [DY1]
antibacterial activity on B. subtilis (zones of inhibition) (B. subtilis): good antibacterial activities | antibacterial activity on S. aureus (zones of inhibition) (S. aureus [1]): good antibacterial activities | Concentration (bacteriostatic effect), S. aureus (S. aureus [1]): 0.02 µM | antibacterial effect on E. coli (E. coli): do not have an antibacterial effect | logKCu^2+, n = 1 [2]: 19.15 ± 0.11 M^−1 | effective concentration (A549 cell survival rate maintained above 80%) (A549 cells): up to 100 μM | Concentration of Compounds When 80% of Cells Survive (A549 cells): <100 µM | logKMn^2+, n = 1 [3]: 13.67 ± 0.31 M^−1 | IC50 (tyrosinase; [6]): 1880 nM | logKZn^2+, n = 1 [4]: 13.13 ± 0.21 M^−1

NC(=S)N/N=C/c1cc(O)ccc1O [DY2]
logKCu^2+, n = 1 [2]: 18.83 ± 0.14 M^−1 | logKMn^2+, n = 1 [3]: 14.27 ± 0.17 M^−1 | logKZn^2+, n = 1 [4]: 13.53 ± 0.11 M^−1

NC(=S)N/N=C/c1cc([N+](=O)[O-])ccc1O [DY3]
logKCu^2+, n = 1 [2]: 19.10 ± 0.15 M^−1 | effective concentration (A549 cell survival rate maintained above 80%) (A549 cells): 50 µM | Concentration of Compounds When 80% of Cells Survive (A549 cells): <50 µM | logKMn^2+, n = 1 [3]: 14.48 ± 0.11 M^−1 | IC50 (tyrosinase; [6]): 9880 nM | logKZn^2+, n = 1 [4]: 13.69 ± 0.12 M^−1

COc1ccc(/C=N/NC(N)=S)c(O)c1 [DY4]
antibacterial activity on B. subtilis (zones of inhibition) (B. subtilis): good antibacterial activities | antibacterial activity on S. aureus (zones of inhibition) (S. aureus [1]): good antibacterial activities | antibacterial effect on E. coli (E. coli): do not have an antibacterial effect | logKCu^2+, n = 1 [2]: 18.95 ± 0.10 M^−1 | effective concentration (A549 cell survival rate maintained above 80%) (A549 cells): up to 100 μM | Concentration of Compounds When 80% of Cells Survive (A549 cells): <100 µM | logKMn^2+, n = 1 [3]: 14.01 ± 0.08 M^−1 | IC50 (tyrosinase; [6]): 1120 nM | logKZn^2+, n = 1 [4]: 13.56 ± 0.17 M^−1

NC(=S)N/N=C/c1cc(Cl)ccc1O [DY5]
antibacterial activity on B. subtilis (zones of inhibition) (B. subtilis): good antibacterial activities | antibacterial activity on S. aureus (zones of inhibition) (S. aureus [1]): good antibacterial activities | antibacterial effect on E. coli (E. coli): do not have an antibacterial effect | logKCu^2+, n = 1 [2]: 19.43 ± 0.22 M^−1 | effective concentration (A549 cell survival rate maintained above 80%) (A549 cells): 50 µM | Concentration of Compounds When 80% of Cells Survive (A549 cells): <50 µM | logKMn^2+, n = 1 [3]: 13.65 ± 0.16 M^−1 | IC50 (tyrosinase; [6]): 1680 nM | logKZn^2+, n = 1 [4]: 12.51 ± 0.20 M^−1

CCN(CC)c1ccc(/C=N/NC(N)=S)c(O)c1 [DY6]
antibacterial activity on B. subtilis (zones of inhibition) (B. subtilis): good antibacterial activities | inhibition at 1 µM (S. aureus [5]): 88.6% | antibacterial activity on S. aureus (zones of inhibition) (S. aureus [1]): good antibacterial activities | Concentration (bacteriostatic effect), S. aureus (S. aureus [1]): 0.02 µM | antibacterial effect on E. coli (E. coli): do not have an antibacterial effect | logKCu^2+, n = 1 [2]: 20.15 M^−1 and 20.15 ± 0.14 M^−1 | effective concentration (A549 cell survival rate maintained above 80%) (A549 cells): up to 100 μM | Concentration of Compounds When 80% of Cells Survive (A549 cells): <100 µM | logKMn^2+, n = 1 [3]: 14.37 M^−1 and 14.37 ± 0.30 M^−1 | IC50 (tyrosinase; L-DOPA method, blank control 1% DMSO, read-out: IC50 (semi-inhibitory curve, Figure 3)): 600 nM | IC50 (tyrosinase; [6]): 600 nM | logKZn^2+, n = 1 [4]: 14.07 M^−1 and 14.07 ± 0.37 M^−1

NC(=S)N/N=C/c1ccc2c(c1)OCCO2 [DY7]
effective concentration (A549 cell survival rate maintained above 80%) (A549 cells): 50 µM | Concentration of Compounds When 80% of Cells Survive (A549 cells): <50 µM | IC50 (tyrosinase; [6]): 41200 nM

— publication PMC6926618, “Modification of Polyacrylonitrile Fibers by Coupling to Thiosemicarbazones” (Materials, 2019)
